Patent US20260159520A1, “HETEROBIFUNCTIONAL COMPOUNDS AND METHODS OF TREATING DISEASE” (Halda Therapeutics OpCo, Inc., priority 2022, published 2026)

What was measured:
[1] = molecular target: T1, CDK9 (Homo sapiens, UniProt P50750); test: KdELECT binding assay, CDK9; conditions: CDK9, Table 7
T1 construct: made in house; host or cells: E. coli BL21-derived host (T7 phage) or HEK-293 ('BEK-293' [sic])
Procedure, shortened: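 Phage-tagged or HEK-derived DNA-tagged kinases competed 1 h at room temperature against bead-immobilised biotinylated ligand in SeaBlock/PBS/Tween/DTT buffer, 0.9% DMSO final. Bound kinase eluted with 0.5 μM free ligand and quantified by qPCR; Kd from 11-point 3-fold dilution series.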

[2] = molecular target: T2, CDK1 (Homo sapiens, UniProt P06493); test: KdELECT binding assay, CDK1; conditions: CDK1, Table 9
T2 construct: made in house; host or cells: E. coli BL21-derived host (T7 phage) or HEK-293 ('BEK-293' [sic])
T2 sequence (P06493 whole entry): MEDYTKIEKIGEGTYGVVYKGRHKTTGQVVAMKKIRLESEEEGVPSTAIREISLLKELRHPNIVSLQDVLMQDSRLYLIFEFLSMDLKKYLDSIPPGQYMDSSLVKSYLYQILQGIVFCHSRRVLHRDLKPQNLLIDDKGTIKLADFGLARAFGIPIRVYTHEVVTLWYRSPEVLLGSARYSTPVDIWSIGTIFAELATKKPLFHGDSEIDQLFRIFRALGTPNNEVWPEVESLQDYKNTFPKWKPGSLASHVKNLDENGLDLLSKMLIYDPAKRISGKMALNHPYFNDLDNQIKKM
Description: (§1) Compounds were tested using a KdELECT. Kinase-tagged T7 phage strains were prepared in an E. coli host derived from the BL21 strain. E. coli were grown to log-phase and infected with T7 phage and incubated with shaking at 32° C. until lysis. The lysates were centrifuged and filtered to remove cell debris. The remaining kinases were produced in BEK-293 cells and subsequently tagged with DNA for qPCR detection. Streptavidin-coated magnetic beads were treated with biotinylated small molecule ligands for 30 minutes at room temperature to generate affinity resins for kinase assays. The liganded beads were blocked with excess biotin and washed with blocking buffer (SeaBlock (Pierce), 1% BSA, 0.05% Tween 20, 1 mM DTT) to remove unbound ligand and to reduce non-specific binding. Binding reactions were assembled by combining kinases, liganded affinity beads, and test compounds in 1× binding buffer (20% SeaBlock, 0.17×PBS, 0.05% Tween 20, 6 mM DTT). Test compounds were prepared as 111× stocks in 100% DMSO. Kd values were determined using an 11-point 3-fold compound dilution series with three DMSO control points. All compounds for Kd measurements are distributed by acoustic transfer (non-contact dispensing) in 100% DMSO. The compounds were then diluted directly into the assays such that the final concentration of DMSO was 0.9%. All reactions performed in polypropylene 384-well plate. Each was a final volume of 0.02 mL. The assay plates were incubated at room temperature with shaking for 1 hour and the affinity beads were washed with wash buffer (lx PBS, 0.05% Tween 20). The beads were then re-suspended in elution buffer (lx PBS, 0.05% Tween 20, 0.5 μM nonbiotinylated affinity ligand) and incubated at room temperature with shaking for 30 minutes. The kinase concentration in the eluates was measured by qPCR.

[3] = molecular target: T3, CDK2 (Homo sapiens, UniProt P24941); test: KdELECT binding assay, CDK2; conditions: CDK2, Table 8
T3 construct: made in house; host or cells: E. coli BL21-derived host (T7 phage) or HEK-293 ('BEK-293' [sic])
Description: as §1, with “All reactions performed in polypropylene 384-well plate. Each was a final volume of 0.02 mL. The assay plates were incubated at room temperature with shaking for 1 hour and the affinity beads were washed with wash buffer (lx PBS, 0.05% Tween 20). The beads were then re-suspended in elution buffer (lx PBS, 0.05% Tween 20, 0.5 μM nonbiotinylated affinity ligand) and incubated at room temperature with shaking for 30 minutes.” left out

T1 sequence (P50750 whole entry): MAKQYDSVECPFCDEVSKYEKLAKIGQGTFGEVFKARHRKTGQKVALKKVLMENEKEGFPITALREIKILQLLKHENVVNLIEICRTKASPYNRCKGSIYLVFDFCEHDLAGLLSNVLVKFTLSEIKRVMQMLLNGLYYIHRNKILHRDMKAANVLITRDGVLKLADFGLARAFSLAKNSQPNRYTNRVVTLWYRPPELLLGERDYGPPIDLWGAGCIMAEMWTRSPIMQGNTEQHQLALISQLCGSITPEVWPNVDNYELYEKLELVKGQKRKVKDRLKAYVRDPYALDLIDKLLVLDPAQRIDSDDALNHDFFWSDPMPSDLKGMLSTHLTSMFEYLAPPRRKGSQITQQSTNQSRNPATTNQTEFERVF

A Kd [1] of 50 to 500 nM was found for `CCc1cnn2c(NCc3ccc(OCCN(C)c4ncc(C(=O)N[C@H]5C(C)(C)[C@H](Oc6ccc(C#N)c(Cl)c6)C5(C)C)cn4)nc3)cc(N3CCCC[C@H]3CCO)nc12` [Compound I-1] in this work.

A Kd [1] of 50 to 500 nM was found for `CCc1cnn2c(NCc3ccc(OCCOCCOCCOCCOCCN(C)c4ncc(C(=O)N[C@H]5C(C)(C)[C@H](Oc6ccc(C#N)c(Cl)c6)C5(C)C)cn4)nc3)cc(N3CCCC[C@H]3CCO)nc12` [Compound I-3] in this work.

A Kd [1] of 500 to 2500 nM was found for `CCc1cnn2c(NCc3ccc(OCCOC4CCN(c5ncc(C(=O)N[C@H]6C(C)(C)[C@H](Oc7ccc(C#N)c(Cl)c7)C6(C)C)cn5)CC4)nc3)cc(N3CCCC[C@H]3CCO)nc12` [Compound I-7, N-((1r,3r)-3-(3-chloro-4-cyanophenoxy)-2,2,4,4-tetramethylcyclobutyl)-2-(4-(2-((5-(((3-ethyl-5-((S)-2-(2-hydroxyethyl)piperidin-1-yl)pyrazolo[1,5-a]pyrimidin-7-yl)amino)methyl)pyridin-2-yl)oxy)ethoxy)piperidin-1-yl)pyrimidine-5-carboxamide] in this work.

For `CCc1cnn2c(NCc3ccc(OCCOCCOCCOC4CCN(c5ncc(C(=O)N[C@H]6C(C)(C)[C@H](Oc7ccc(C#N)c(Cl)c7)C6(C)C)cn5)CC4)nc3)cc(N3CCCC[C@H]3CCO)nc12` [Compound I-8], the Kd [1] was 50 to 500 nM, the Kd [2] was > 2500 nM and the Kd [3] was > 2500 nM.

A Kd [1] of 500 to 2500 nM was found for `CCc1cnn2c(NCc3ccc(OCCOCCOCCOCCOCCOC4CCN(c5ncc(C(=O)N[C@H]6C(C)(C)[C@H](Oc7ccc(C#N)c(Cl)c7)C6(C)C)cn5)CC4)nc3)cc(N3CCCC[C@H]3CCO)nc12` [Compound I-9] in this work.

With `CC1(C)[C@H](NC(=O)c2cnc(N3CCC(OCCNS(=O)(=O)c4ccc(Nc5ncc(Br)c(Nc6cccc(F)c6C(N)=O)n5)cc4)CC3)nc2)C(C)(C)[C@H]1Oc1ccc(C#N)c(Cl)c1` [Compound I-13, 2-(4-(2-((4-((5-bromo-4-((2-carbamoyl-3-fluorophenyl)amino)pyrimidin-2-yl)amino)phenyl)sulfonamido)ethoxy)piperidin-1-yl)-N-((1 r,3r)-3-(3-chloro-4-cyanophenoxy)-2,2,4,4-tetramethylcyclobutyl)pyrimidine-5-carboxamide] the Kd [1] was > 2500 nM.

A Kd [1] of 500 to 2500 nM was found for `CCc1cnn2c(NCc3ccc(OCCCCOCCOC4CCN(c5ncc(C(=O)N[C@H]6C(C)(C)[C@H](Oc7ccc(C#N)c(Cl)c7)C6(C)C)cn5)CC4)nc3)cc(N3CCCC[C@H]3CCO)nc12` [Compound I-34] in this work.

With `CCc1cnn2c(NCc3ccc(OCCN4CCN(CC5CCN(c6ncc(C(=O)N[C@H]7C(C)(C)[C@H](Oc8ccc(C#N)c(Cl)c8)C7(C)C)cn6)CC5)CC4)nc3)cc(N3CCCC[C@H]3CCO)nc12` [Compound I-41] the Kd [1] was 50 to 500 nM and the Kd [2] was > 2500 nM.

In the case of `CCc1cnn2c(NCc3ccc(COCCN4CCN(CC5CCN(c6ncc(C(=O)N[C@H]7C(C)(C)[C@H](Oc8ccc(C#N)c(Cl)c8)C7(C)C)cn6)CC5)CC4)nc3)cc(N3CCCC[C@H]3CCO)nc12` [Compound I-42], the Kd [1] is reported as < 50 nM and the Kd [2] is reported as > 2500 nM.

A Kd [1] of 50 to 500 nM was found for `CCc1cnn2c(NCc3ccc(OCCOCCOCCOC4CCN(c5ccc(C(=O)N[C@H]6C(C)(C)[C@H](Oc7ccc(C#N)c(Cl)c7)C6(C)C)nn5)CC4)nc3)cc(N3CCCC[C@H]3CCO)nc12` [Compound I-44, N-((1r,3r)-3-(3-chloro-4-cyanophenoxy)-2,2,4,4-tetramethylcyclobutyl)-6-(4-(2-(2-(2-((5-(((3-ethyl-5-((S)-2-(2-hydroxyethyl)piperidin-1-yl)pyrazolo[1,5-a]pyrimidin-7-yl)amino)methyl)pyridin-2-yl)oxy)ethoxy)ethoxy)ethoxy)piperidin-1-yl)pyridazine-3-carboxamide] in this work.

For `CCc1cnn2c(NCc3ccc(OCCOCC4CCN(CC5CCN(c6ncc(C(=O)N[C@H]7C(C)(C)[C@H](Oc8ccc(C#N)c(Cl)c8)C7(C)C)cn6)CC5)CC4)nc3)cc(N3CCCC[C@H]3CCO)nc12` [Compound I-45], the Kd [1] was < 50 nM.

In the case of `CCc1cnn2c(NCc3ccc(OC4CCN(CC5CCN(c6ncc(C(=O)N[C@H]7C(C)(C)[C@H](Oc8ccc(C#N)c(Cl)c8)C7(C)C)cn6)CC5)CC4)nc3)cc(N3CCCC[C@H]3CCO)nc12` [Compound I-46], the Kd [1] is reported as < 50 nM.

With `CCc1cnn2c(NCc3ccc(OCCN4CCN(CC5CCN(c6ncc(C(=O)N[C@H]7C(C)(C)[C@H](Oc8ccc(C#N)c(Cl)c8)C7(C)C)cn6)CC5)CC4)nc3)cc(-c3ccccc3)nc12` [Compound I-47, N-((1r,3r)-3-(3-chloro-4-cyanophenoxy)-2,2,4,4-tetramethylcyclobutyl)-2-(4-((4-(2-((5-(((3-ethyl-5-phenylpyrazolo[1,5-a]pyrimidin-7-yl)amino)methyl)pyridin-2-yl)oxy)ethyl)piperazin-1-yl)methyl)piperidin-1-yl)pyrimidine-5-carboxamide] the Kd [1] was > 2500 nM.

In the case of `CCc1cnn2c(NCc3ccc(OCC4CCN(CC5CCN(c6ncc(C(=O)N[C@H]7C(C)(C)[C@H](Oc8ccc(C#N)c(Cl)c8)C7(C)C)cn6)CC5)CC4)nc3)cc(N3CCCC[C@H]3CCO)nc12` [Compound I-51], the Kd [1] is reported as 50 to 500 nM and the Kd [2] is reported as > 2500 nM.

For `CC(C)n1cc(-c2ccnc3[nH]c(C4CCN(CCN5CCN(CC6CCN(c7ncc(C(=O)NC8C(C)(C)C(Oc9ccc(C#N)c(Cl)c9)C8(C)C)cn7)CC6)CC5)CC4)cc23)ccc1=O` (stereo not drawn) [Compound I-74, N-[3-(3-chloro-4-cyano-phenoxy)-2,2,4,4-tetramethyl-cyclobutyl]-2-[4-[[4-[2-[4-[4-(1-isopropyl-6-oxo-3-pyridyl)-1H-pyrrolo [2,3-b]pyridin-2-yl]-1-piperidyl]ethyl]piperazin-1-yl]methyl]-1-piperidyl]pyrimidine-5-carboxamide], the Kd [1] was < 50 nM.

A Kd [1] of 500 to 2500 nM was found for `CC1(C)[C@H](NC(=O)c2cnc(N3CCC(CN4CCN(CCN5C/C=C/CCOc6cccc(c6)-c6ccnc(n6)Nc6cccc(c6)C5)CC4)CC3)nc2)C(C)(C)[C@H]1Oc1ccc(C#N)c(Cl)c1` [Compound I-94] in this work.

A Kd [1] of 50 to 500 nM was found for `Cc1ncc(-c2nc(Nc3ccc(C(=O)N4CC[C@H](N(C)CCOC5CCN(c6ncc(C(=O)N[C@H]7C(C)(C)[C@H](Oc8ccc(C#N)c(Cl)c8)C7(C)C)cn6)CC5)C4)cc3)ncc2F)n1C(C)C` [Compound I-95, N-[3-(3-chloro-4-cyano-phenoxy)-2,2,4,4-tetramethyl-cyclobutyl]-2-[4-[2-[[(3S)-1-[4-[[5-fluoro-4-(3-isopropyl-2-methyl-imidazol-4-yl)pyrimidin-2-yl]amino]benzoyl]pyrrolidin-3-yl]-methyl-amino]ethoxy]-1-piperidyl]pyrimidine-5-carboxamide] in this work.

A Kd [1] of 50 to 500 nM was found for `Cc1ncc(-c2nc(Nc3ccc(C(=O)N4CC[C@H](N(C)CCOCCOCCOC5CCN(c6ncc(C(=O)N[C@H]7C(C)(C)[C@H](Oc8ccc(C#N)c(Cl)c8)C7(C)C)cn6)CC5)C4)cc3)ncc2F)n1C(C)C` [Compound I-96] in this work.

A Kd [1] of 50 to 500 nM was found for `Cc1ncc(-c2nc(Nc3ccc(C(=O)N4CC[C@H](N(C)CCOCCOCCOCCOCCOC5CCN(c6ncc(C(=O)N[C@H]7C(C)(C)[C@H](Oc8ccc(C#N)c(Cl)c8)C7(C)C)cn6)CC5)C4)cc3)ncc2F)n1C(C)C` [Compound I-97] in this work.
